# Test results reported in the supplement of paper PMC10307832.
# Tests used:
# Assay in all cases: relative viability (nuclei count vs DMSO), 5 days (fraction); higher = more cells survive
# EHT 1864 + Palbociclib = compound: C1COCCN1CC2=CC(=O)C(=CO2)OCCCCCSC3=C4C=CC(=CC4=NC=C3)C(F)(F)F [EHT 1864] + CC(=O)c1c(C)c2cnc(Nc3ccc(N4CCNCC4)cn3)nc2n(C2CCCC2)c1=O [Palbociclib] (partner 0.5 µM)
# Summary of the method: (§1)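 The day after seeding in 1536-well plates, lung cancer cell lines were treated by pin tool with a single drug, or with a fixed anchor-drug dose together with five library-drug doses (not always all listed) in √10 steps. After 5 days, a combined fix-and-stain solution (final 0.05% Triton X-100, 1% formaldehyde, 1 ug/ml Hoechst) was added. Nuclei counted on 4× images gave relative viability as treated counts over vehicle counts, reported as the median of duplicate plates.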
# EHT 1864 + Bortezomib = compound: C1COCCN1CC2=CC(=O)C(=CO2)OCCCCCSC3=C4C=CC(=CC4=NC=C3)C(F)(F)F [EHT 1864] + CC(C)C[C@H](NC(=O)[C@H](Cc1ccccc1)NC(=O)c1cnccn1)B(O)O [Bortezomib] (partner 0.002 µM)
# Summary of the method: as §1
# EHT 1864 + Alpelisib = compound: C1COCCN1CC2=CC(=O)C(=CO2)OCCCCCSC3=C4C=CC(=CC4=NC=C3)C(F)(F)F [EHT 1864] + Cc1nc(NC(=O)N2CCC[C@H]2C(N)=O)sc1-c1ccnc(C(C)(C)C(F)(F)F)c1 [Alpelisib] (partner 2 µM)
# Summary of the method: as §1
# EHT 1864 + Dasatinib = compound: C1COCCN1CC2=CC(=O)C(=CO2)OCCCCCSC3=C4C=CC(=CC4=NC=C3)C(F)(F)F [EHT 1864] + Cc1nc(Nc2ncc(C(=O)Nc3c(C)cccc3Cl)s2)cc(N2CCN(CCO)CC2)n1 [Dasatinib] (partner 0.075 µM)
# Summary of the method: as §1
Cell Line,relative viability (EHT 1864 + Palbociclib; first compound 0.04 µM),relative viability (EHT 1864 + Palbociclib; first compound 0.1265 µM),relative viability (EHT 1864 + Palbociclib; first compound 0.4 µM),relative viability (EHT 1864 + Palbociclib; first compound 1.265 µM),relative viability (EHT 1864 + Palbociclib; first compound 4 µM),relative viability (EHT 1864 + Bortezomib; first compound 0.04 µM),relative viability (EHT 1864 + Bortezomib; first compound 0.1265 µM),relative viability (EHT 1864 + Bortezomib; first compound 0.4 µM),relative viability (EHT 1864 + Bortezomib; first compound 1.265 µM),relative viability (EHT 1864 + Bortezomib; first compound 4 µM),relative viability (EHT 1864 + Alpelisib; first compound 0.04 µM),relative viability (EHT 1864 + Alpelisib; first compound 0.1265 µM),relative viability (EHT 1864 + Alpelisib; first compound 0.4 µM),relative viability (EHT 1864 + Alpelisib; first compound 1.265 µM),relative viability (EHT 1864 + Alpelisib; first compound 4 µM),relative viability (EHT 1864 + Dasatinib; first compound 0.04 µM),relative viability (EHT 1864 + Dasatinib; first compound 0.1265 µM),relative viability (EHT 1864 + Dasatinib; first compound 0.4 µM),relative viability (EHT 1864 + Dasatinib; first compound 1.265 µM),relative viability (EHT 1864 + Dasatinib; first compound 4 µM)
PC-14,0.489,0.446,0.524,0.582,0.471,0.977,0.86,0.877,0.837,0.778,0.916,0.888,0.952,0.901,0.846,0.257,0.276,0.279,0.26,0.195
COR-L23,0.336,0.216,0.336,0.283,0.272,1.08,0.85,1.01,1.05,0.867,0.832,0.878,0.815,0.855,0.76,0.492,0.396,0.467,0.485,0.439
HCC-78,0.414,0.568,0.46,0.493,0.478,0.409,0.534,0.432,0.456,1.1,0.29,0.31,0.328,0.367,0.491,0.365,0.367,0.357,0.338,0.337
NCI-H2405,0.536,0.497,0.469,0.5,0.538,1.05,0.945,0.84,0.76,1.02,0.789,0.767,0.877,,0.719,0.205,0.196,0.241,0.227,0.234
SK-LU-1,0.474,0.323,0.395,0.37,0.352,1.22,,1.37,1.37,1.07,1.02,1.02,0.928,0.996,0.815,0.186,0.171,0.174,0.174,0.164
EMC-BAC-2,0.528,0.491,0.52,0.492,0.518,1.07,0.891,1.06,0.951,1.23,0.694,0.682,0.718,0.705,0.768,0.359,0.342,0.338,0.276,0.325
LCLC-97TM1,0.225,0.15,0.183,0.187,0.241,0.754,0.53,0.75,0.401,0.7,0.253,,0.22,0.195,0.198,0.888,0.748,0.828,0.727,0.8
H3255,0.298,0.322,0.306,0.31,0.312,0.697,0.6,1.11,0.784,1.03,0.652,0.516,0.675,0.718,0.711,0.437,0.391,0.346,0.344,0.343
LXF-289,0.594,0.572,0.542,0.537,0.581,1.02,0.92,0.929,0.973,0.872,1.1,1,1,0.968,0.912,0.237,0.239,0.253,0.171,0.207
UMC-11,0.339,0.266,0.281,0.343,0.31,0.675,0.521,0.719,0.255,0.547,0.887,1.01,0.976,0.962,1.02,0.462,0.449,,0.441,0.458
LC-2-ad,0.481,0.436,0.447,0.46,0.464,0.924,,0.993,1.04,0.903,0.837,,0.831,0.9,0.82,0.65,,0.617,0.54,0.659
A-427,0.547,0.485,0.535,0.545,0.494,1.06,1.02,0.944,0.931,0.863,1.15,1.08,1.04,1.11,1.13,0.643,0.655,0.613,0.705,0.623
NCI-H322M,0.488,0.488,0.434,0.456,0.465,1.22,1.2,1.23,1.27,1.25,0.763,0.747,0.821,0.81,0.959,0.256,0.24,0.283,0.23,0.234
HCC-366,0.42,0.319,0.348,0.327,0.361,1.03,,0.928,1.03,1.11,0.426,,0.492,0.401,0.285,0.609,0.602,0.638,0.596,0.771
NCI-H1975,0.641,0.647,0.4,0.348,0.552,0.343,0.395,0.376,0.32,0.369,0.628,0.614,0.6,0.618,0.572,0.361,0.292,0.426,,0.331
NCI-H1437,0.311,0.293,0.309,0.236,0.302,0.563,0.476,0.475,0.486,0.473,0.988,1.04,0.899,0.805,0.652,0.453,0.387,0.342,0.235,0.248
